Measurements taken from paper PMC10726358 (Journal of Medicinal Chemistry, 2023).

Experiments:
[1] = biological target: T1, FALZ (Homo sapiens, UniProt Q12830); test: BROMOscan FALZ; assay type: binding
T1 construct: ≥2000-fold selectivity over all 20 non-BET bromodomains tested; purchased DiscoverX
Description: (§1) The BRD4 BD1/BD2 TR-FRET assay had been used routinely for this optimization work, and in order to better understand the BET BD1 domain selectivity profile, 31 was tested in TR-FRET BRD2, BRD3, and BRDT assays.
(§2) [52] BROMOscan recombinant protein binding assays were carried out at DiscoverX. (accessed April 4, 2023).

[2] = biological target: KCNQ1 (Homo sapiens, UniProt P51787); test: Cross screening: KCNQ1 blocker
[3] = biological target: T2, BRD7 (Homo sapiens, UniProt Q9NPI1); test: BROMOscan BRD7; assay type: binding
T2 construct: ≥2000-fold selectivity over all 20 non-BET bromodomains tested; purchased DiscoverX
Description: as §1, §2

[4] = biological target: T3, CREBBP (Homo sapiens, UniProt Q92793); test: BROMOscan CREBBP; assay type: binding
T3 construct: ≥2000-fold selectivity over all 20 non-BET bromodomains tested; purchased DiscoverX
Description: as §1, §2

[5] = biological target: T4, NMDA 1A/2B (Homo sapiens, UniProt Q05586+Q13224); test: Cross screening: NMDA 1A/2B antagonist; assay type: biochemical
T4 construct: purchased GSK enhanced cross-screening panel (in-house)

[6] = Chromatographic LogD at pH 7.4
[7] = biological target: T5, Alpha 2C Adrenoceptor (Homo sapiens, UniProt P18825); test: Cross screening: Alpha 2C Adrenoceptor agonist; assay type: biochemical
T5 construct: purchased GSK enhanced cross-screening panel (in-house)

[8] = biological target: T6, BRD4 BD1 (Homo sapiens, UniProt O60885); test: BROMOscan BRD4 BD1; assay type: binding
T6 construct: BRD4 BD1; purchased DiscoverX
Description: as §1, §2

[9] = biological target: BRD3 BD2 (Homo sapiens, UniProt Q15059); test: BROMOscan BRD3 BD2; assay type: binding
Description: as §1, §2

[10] = biological target: T7, 5-HT2A (Homo sapiens, UniProt P28223); test: Cross screening: 5-HT2A antagonist; assay type: biochemical
T7 construct: purchased GSK enhanced cross-screening panel (in-house)

[11] = test system: BRD4 BD1; assay type: binding, human; conditions: TR-FRET
Description: (§3) As a strategic decision, every compound synthesized across all of GSK’s bromodomain research projects was tested in both a BRD4 BD1 and a BRD4 BD2 TR-FRET assay as part of tier 1 data generation. […] LipE is a straightforward, yet powerful metric for medicinal chemistry teams to normalize potency relative to lipophilicity, a critical factor both for parameters of the human dose equation and also for promiscuity.[43],[44] To aid interpretation, diagonal lines representing different LipE values are shown, with the most desirable space found toward the top left-hand area of the plot representing molecules with the comparatively highest potency per unit of lipophilicity.
(§4) All TR-FRET and hWB cytokine assays have been described previously.[54]

[12] = biological target: T8, EP300 (Homo sapiens, UniProt Q09472); test: BROMOscan EP300; assay type: binding
T8 construct: The broader non-BET bromodomain selectivity was also determined in the BROMOscan assay, with the closest off-target being EP300; purchased DiscoverX
Description: as §1, §2

[13] = biological target: T9, Cyclooxygenase 2 (COX-2) (Homo sapiens, UniProt P35354); test: Cross screening: Cyclooxygenase 2 (COX-2) antagonist; assay type: biochemical
T9 construct: purchased GSK enhanced cross-screening panel (in-house)

[14] = biological target: T10, GR (Homo sapiens, UniProt P04150); test: Cross screening: GR Agonist; assay type: biochemical
T10 construct: purchased GSK enhanced cross-screening panel (in-house)

[15] = biological target: T11, Adenosine A2a (Homo sapiens, UniProt P29274); test: Cross screening: Adenosine A2a Human Agonist; assay type: biochemical
T11 construct: purchased GSK enhanced cross-screening panel (in-house)

[16] = biological target: BRDT BD1 (Homo sapiens, UniProt Q58F21); test: BRDT BD1 TR-FRET assay; assay type: binding
Description: as §1, §4

[17] = biological target: T12, Aurora B (Homo sapiens, UniProt Q96GD4); test: Cross screening: Aurora B inhibitor; assay type: biochemical
T12 construct: purchased GSK enhanced cross-screening panel (in-house)

[18] = biological target: T13, 5-HT1B (Homo sapiens, UniProt P28222); test: Cross screening: 5-HT1B Agonist; assay type: biochemical
T13 construct: purchased GSK enhanced cross-screening panel (in-house)

[19] = biological target: T14, 5-HT3 (Homo sapiens, UniProt P46098); test: Cross screening: 5-HT3 antagonist; assay type: biochemical
T14 construct: purchased GSK enhanced cross-screening panel (in-house)

[20] = biological target: T15, SMARCA4 (Homo sapiens, UniProt P51532); test: BROMOscan SMARCA4; assay type: binding
T15 construct: ≥2000-fold selectivity over all 20 non-BET bromodomains tested; purchased DiscoverX
Description: as §1, §2

[21] = biological target: T16, Beta2 Adrenoceptor (Homo sapiens, UniProt P07550); test: Cross screening: Beta2 Adrenoceptor Antagonist; assay type: biochemical
T16 construct: purchased GSK enhanced cross-screening panel (in-house)

[22] = biological target: T17, Alpha 1 nAChR (Homo sapiens, UniProt P02708+P07510+Q07001); test: Cross screening: Alpha 1 nAChR Antagonist; assay type: biochemical
T17 construct: purchased GSK enhanced cross-screening panel (in-house)

[23] = test system: BRD4 BD2; test: BRD4 BD2 TR-FRET assay; assay type: binding, human
Description: as §3, §4

[24] = biological target: T18, CECR2 (Homo sapiens, UniProt Q9BXF3); test: BROMOscan CECR2; assay type: binding
T18 construct: ≥2000-fold selectivity over all 20 non-BET bromodomains tested; purchased DiscoverX
Description: as §1, §2

[25] = biological target: T19, BRD3 BD1 (Homo sapiens, UniProt Q15059); test: BRD3 BD1 TR-FRET assay; assay type: binding
T19 construct: BRD3 BD1; purchased DiscoverX
Description: as §1, §4

[26] = test system: 12 multiplex human primary-cell-based assays; test: BioMAP Diversity PLUS platform
Description: The X-axis lists the quantitative protein-based biomarker readouts measured in each system. The Y-axis represents a log-transformed ratio of the biomarker readouts for the drug-treated sample (n = 1) over vehicle controls (n ≥ 6). […] Biomarker key activities are described as modulated if these activities increase in some systems but decrease in others.
31 was added 1 h before stimulation of the cells and was present during the entire incubation period of the assays.

[27] = biological target: T20, BRD8 BD1 (Homo sapiens, UniProt Q9H0E9); test: BROMOscan BRD8 BD1; assay type: binding
T20 construct: BRD8 BD1; purchased DiscoverX
Description: as §1, §2

[28] = biological target: T21, LCK (Homo sapiens, UniProt P06239); test: Cross screening: LCK inhibitor; assay type: biochemical
T21 construct: purchased GSK enhanced cross-screening panel (in-house)

[29] = biological target: T22, BAZ2A (Homo sapiens, UniProt Q9UIF9); test: BROMOscan BAZ2A; assay type: binding
T22 construct: ≥2000-fold selectivity over all 20 non-BET bromodomains tested; purchased DiscoverX
Description: as §1, §2

[30] = biological target: T23, NK1 (Homo sapiens, UniProt P25103); test: Cross screening: NK1 antagonist; assay type: biochemical
T23 construct: purchased GSK enhanced cross-screening panel (in-house)

[31] = biological target: T24, OPRM1 (Homo sapiens, UniProt P35372); test: Cross screening: OPRM1 Agonist; assay type: biochemical
T24 construct: purchased GSK enhanced cross-screening panel (in-house)

[32] = biological target: T7, 5-HT2A; test: Cross screening: 5-HT2A Agonist; assay type: biochemical

T8 sequence (Q09472 1049-1156 limits assumed): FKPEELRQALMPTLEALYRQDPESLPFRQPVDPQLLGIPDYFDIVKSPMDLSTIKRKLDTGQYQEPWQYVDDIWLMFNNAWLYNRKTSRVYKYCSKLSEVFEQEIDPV
T19 sequence (Q15059 34-140 limits assumed): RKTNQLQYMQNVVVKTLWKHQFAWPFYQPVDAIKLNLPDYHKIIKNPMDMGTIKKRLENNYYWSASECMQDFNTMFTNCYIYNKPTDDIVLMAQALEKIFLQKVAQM
T7 sequence (P28223 whole entry): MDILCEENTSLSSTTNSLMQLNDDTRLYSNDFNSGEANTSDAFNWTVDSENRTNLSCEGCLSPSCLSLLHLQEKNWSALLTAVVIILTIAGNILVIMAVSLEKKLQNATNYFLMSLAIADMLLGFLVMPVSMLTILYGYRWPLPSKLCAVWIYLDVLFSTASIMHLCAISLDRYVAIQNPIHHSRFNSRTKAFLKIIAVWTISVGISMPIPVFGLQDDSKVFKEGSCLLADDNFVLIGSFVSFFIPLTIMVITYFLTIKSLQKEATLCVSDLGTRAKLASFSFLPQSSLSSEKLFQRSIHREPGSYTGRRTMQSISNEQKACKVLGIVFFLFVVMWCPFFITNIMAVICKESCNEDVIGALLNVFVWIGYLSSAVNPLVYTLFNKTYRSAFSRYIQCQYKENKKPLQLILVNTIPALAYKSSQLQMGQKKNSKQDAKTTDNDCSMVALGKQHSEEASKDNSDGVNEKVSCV
T11 sequence (P29274 whole entry): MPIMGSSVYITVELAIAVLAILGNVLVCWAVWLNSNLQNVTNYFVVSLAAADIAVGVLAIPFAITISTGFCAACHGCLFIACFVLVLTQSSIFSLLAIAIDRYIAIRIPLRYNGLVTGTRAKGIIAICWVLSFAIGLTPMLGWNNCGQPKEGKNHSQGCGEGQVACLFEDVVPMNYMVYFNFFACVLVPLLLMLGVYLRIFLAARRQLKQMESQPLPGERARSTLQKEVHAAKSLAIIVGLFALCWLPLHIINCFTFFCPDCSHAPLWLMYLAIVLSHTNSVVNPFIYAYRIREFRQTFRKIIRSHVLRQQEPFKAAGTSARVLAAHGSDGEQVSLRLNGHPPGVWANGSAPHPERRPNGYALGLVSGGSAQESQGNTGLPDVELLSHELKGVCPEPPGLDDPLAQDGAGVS
T9 sequence (P35354 18-604): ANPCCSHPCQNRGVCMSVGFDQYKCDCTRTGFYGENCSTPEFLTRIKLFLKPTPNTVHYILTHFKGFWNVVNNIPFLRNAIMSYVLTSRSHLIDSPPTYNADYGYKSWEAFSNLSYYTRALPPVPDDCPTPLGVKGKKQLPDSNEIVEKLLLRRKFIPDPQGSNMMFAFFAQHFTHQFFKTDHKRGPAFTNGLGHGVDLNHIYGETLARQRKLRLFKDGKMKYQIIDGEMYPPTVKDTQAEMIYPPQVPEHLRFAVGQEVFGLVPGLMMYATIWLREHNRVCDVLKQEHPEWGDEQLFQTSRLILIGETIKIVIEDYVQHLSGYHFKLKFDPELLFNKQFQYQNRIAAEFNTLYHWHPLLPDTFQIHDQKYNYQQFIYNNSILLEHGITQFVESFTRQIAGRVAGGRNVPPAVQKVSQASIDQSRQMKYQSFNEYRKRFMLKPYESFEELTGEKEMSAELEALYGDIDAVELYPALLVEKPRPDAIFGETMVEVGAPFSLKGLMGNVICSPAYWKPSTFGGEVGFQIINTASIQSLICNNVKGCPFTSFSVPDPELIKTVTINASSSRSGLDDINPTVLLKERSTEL
T22 sequence (Q9UIF9 1793-1897 limits assumed): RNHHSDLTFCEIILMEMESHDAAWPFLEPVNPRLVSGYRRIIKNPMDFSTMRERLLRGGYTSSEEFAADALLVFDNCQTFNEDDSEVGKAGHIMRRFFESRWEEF
T20 sequence (Q9H0E9 706-811 limits assumed): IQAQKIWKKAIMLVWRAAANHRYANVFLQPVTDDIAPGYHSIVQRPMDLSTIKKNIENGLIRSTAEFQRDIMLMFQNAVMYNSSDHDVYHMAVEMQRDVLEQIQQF
T13 sequence (P28222 whole entry): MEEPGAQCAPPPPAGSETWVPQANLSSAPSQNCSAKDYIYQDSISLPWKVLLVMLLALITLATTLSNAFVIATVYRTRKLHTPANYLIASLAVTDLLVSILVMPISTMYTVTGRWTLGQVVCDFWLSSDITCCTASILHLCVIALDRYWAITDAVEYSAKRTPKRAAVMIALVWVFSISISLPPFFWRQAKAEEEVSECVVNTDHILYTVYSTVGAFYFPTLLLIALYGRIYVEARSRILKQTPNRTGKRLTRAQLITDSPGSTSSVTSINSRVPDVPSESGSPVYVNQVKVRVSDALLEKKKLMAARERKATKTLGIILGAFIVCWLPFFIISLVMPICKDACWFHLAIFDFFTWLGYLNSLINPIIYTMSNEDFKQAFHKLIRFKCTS
T24 sequence (P35372 whole entry): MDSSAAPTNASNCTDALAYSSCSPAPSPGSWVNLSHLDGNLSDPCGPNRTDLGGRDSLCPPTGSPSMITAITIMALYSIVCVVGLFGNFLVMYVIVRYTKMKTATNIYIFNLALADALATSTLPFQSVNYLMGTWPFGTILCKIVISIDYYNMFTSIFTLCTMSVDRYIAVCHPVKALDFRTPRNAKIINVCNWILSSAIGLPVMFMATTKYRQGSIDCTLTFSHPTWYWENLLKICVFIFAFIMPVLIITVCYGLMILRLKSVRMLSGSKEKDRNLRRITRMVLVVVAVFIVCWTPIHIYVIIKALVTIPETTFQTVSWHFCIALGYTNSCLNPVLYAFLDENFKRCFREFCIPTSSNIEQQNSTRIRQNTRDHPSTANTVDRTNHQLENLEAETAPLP
T23 sequence (P25103 whole entry): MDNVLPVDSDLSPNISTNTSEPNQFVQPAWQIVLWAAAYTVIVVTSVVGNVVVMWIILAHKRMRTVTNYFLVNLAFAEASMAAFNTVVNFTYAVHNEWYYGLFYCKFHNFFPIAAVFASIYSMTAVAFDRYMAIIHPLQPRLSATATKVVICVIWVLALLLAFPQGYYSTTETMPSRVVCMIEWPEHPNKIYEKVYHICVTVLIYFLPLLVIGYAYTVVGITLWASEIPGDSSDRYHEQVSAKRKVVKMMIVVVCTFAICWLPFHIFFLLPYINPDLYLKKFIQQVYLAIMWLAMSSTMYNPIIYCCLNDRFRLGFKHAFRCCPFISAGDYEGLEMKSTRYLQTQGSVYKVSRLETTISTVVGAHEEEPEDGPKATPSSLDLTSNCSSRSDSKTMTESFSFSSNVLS
T2 sequence (Q9NPI1 131-235 limits assumed): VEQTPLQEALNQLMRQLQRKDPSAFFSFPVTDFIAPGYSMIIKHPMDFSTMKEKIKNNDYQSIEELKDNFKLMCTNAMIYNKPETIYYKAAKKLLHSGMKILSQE
BRD3 BD2, sequence (Q15059 306-415 limits assumed): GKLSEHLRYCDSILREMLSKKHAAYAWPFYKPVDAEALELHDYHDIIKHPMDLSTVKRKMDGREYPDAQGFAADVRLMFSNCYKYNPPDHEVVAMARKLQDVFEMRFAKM
T3 sequence (Q92793 1085-1192 limits assumed): as the sequence (Q09472 1049-1156 limits assumed) above, with S47N, I73V, Y93F, S98A counted along it
T21 sequence (P06239 whole entry): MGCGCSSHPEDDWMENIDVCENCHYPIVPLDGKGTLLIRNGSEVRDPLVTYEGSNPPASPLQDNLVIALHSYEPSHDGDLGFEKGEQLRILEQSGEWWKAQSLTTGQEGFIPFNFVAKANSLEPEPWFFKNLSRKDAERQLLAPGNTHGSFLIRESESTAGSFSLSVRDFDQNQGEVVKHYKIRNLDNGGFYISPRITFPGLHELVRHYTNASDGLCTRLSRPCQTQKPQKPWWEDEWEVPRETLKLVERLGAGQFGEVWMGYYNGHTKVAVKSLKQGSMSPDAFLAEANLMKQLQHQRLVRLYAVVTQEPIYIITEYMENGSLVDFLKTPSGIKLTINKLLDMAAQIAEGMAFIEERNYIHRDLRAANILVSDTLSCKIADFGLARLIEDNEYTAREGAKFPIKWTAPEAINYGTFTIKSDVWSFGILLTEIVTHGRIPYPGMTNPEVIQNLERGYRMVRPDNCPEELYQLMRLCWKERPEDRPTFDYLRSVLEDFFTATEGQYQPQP
T10 sequence (P04150 whole entry): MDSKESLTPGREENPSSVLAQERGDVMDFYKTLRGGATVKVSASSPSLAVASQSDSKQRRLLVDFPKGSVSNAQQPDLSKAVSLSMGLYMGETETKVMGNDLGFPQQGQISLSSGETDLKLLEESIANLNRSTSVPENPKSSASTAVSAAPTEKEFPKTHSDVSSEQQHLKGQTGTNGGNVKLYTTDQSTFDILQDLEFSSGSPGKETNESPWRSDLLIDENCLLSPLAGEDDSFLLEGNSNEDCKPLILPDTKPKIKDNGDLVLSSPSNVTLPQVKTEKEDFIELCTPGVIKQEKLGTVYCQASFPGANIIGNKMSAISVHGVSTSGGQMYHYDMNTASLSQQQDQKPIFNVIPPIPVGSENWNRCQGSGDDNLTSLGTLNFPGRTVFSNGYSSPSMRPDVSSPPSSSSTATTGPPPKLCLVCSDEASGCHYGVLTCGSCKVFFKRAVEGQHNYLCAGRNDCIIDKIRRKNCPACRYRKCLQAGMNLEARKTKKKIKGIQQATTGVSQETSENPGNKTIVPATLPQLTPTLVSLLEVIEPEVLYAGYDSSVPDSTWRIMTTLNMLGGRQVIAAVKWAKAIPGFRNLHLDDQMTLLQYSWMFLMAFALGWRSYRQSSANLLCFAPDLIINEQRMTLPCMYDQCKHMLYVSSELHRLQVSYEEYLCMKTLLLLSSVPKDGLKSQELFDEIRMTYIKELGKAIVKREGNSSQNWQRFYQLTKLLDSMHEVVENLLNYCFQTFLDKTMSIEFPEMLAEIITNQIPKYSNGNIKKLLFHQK
T18 sequence (Q9BXF3 434-538 limits assumed): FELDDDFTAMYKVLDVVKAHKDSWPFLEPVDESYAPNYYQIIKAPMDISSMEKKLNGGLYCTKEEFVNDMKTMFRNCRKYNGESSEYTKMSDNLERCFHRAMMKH

**Q.** Which results are given for `Cc1cc(-c2nc3ccccc3n2C[C@@H]2CCCN(C(=O)C3CCN(C(C)C)CC3)C2)cn(C)c1=O` [Compound 31, (S)-5-(1-((1-(1-Isopropylpiperidine-4-carbonyl)piperidin-3-yl)methyl)-1H-benzo [d]imidazole-2-yl)-1,3-dimethylpyridin-2(1H)-one]?
**A.** Kd [1]: > 31.6 µM; pXC50 KCNQ1 blocker [2]: < 4.6; Kd [3]: > 31.6 µM; Kd [4]: 20 µM; pXC50 NMDA 1A/2B antagonist [5]: < 4.0; PFI (property forecast index) ([6]; chromLogDpH7.4 + number of aromatic rings): 4.7; chromatographic logD ([6]; pH 7.4): 1.7; pXC50 Alpha 2C Adrenoceptor agonist [7]: < 4.0; BROMOscan pKd BRD4 BD1 [8]: 8.1; fold selectivity BRD4 BD1 over BD2 ([8]; BROMOscan): 316 fold; BROMOscan pKd BRD3 BD2 [9]: 5.8; pXC50 5-HT2A antagonist [10]: < 4.0; BRD4 BD1 FRET pIC50 [11]: 7.8; fold selectivity (BRD4 BD1 over BRD4 BD2) [11]: 1000 fold; BROMOscan pKd EP300 [12]: 5.0; fold selectivity over EP300 ([12]; BROMOscan, compared to BRD4 BD1 pKd 8.1): 1200 fold; pXC50 Cyclooxygenase 2 (COX-2) antagonist [13]: < 4.0; pXC50 GR Agonist [14]: < 4.0; pXC50 Adenosine A2a Human Agonist [15]: < 4.0; BRDT BD1 TR-FRET pIC50 [16]: 7.3; fold selectivity BRDT BD1 over BD2 ([16]; TR-FRET): 630 fold; pXC50 Aurora B inhibitor [17]: < 4.5; pXC50 5-HT1B Agonist [18]: < 4.0; pXC50 5-HT3 antagonist [19]: < 4.3; Kd [20]: > 31.6 µM; pXC50 Beta2 Adrenoceptor Antagonist [21]: < 4.0; pXC50 Alpha 1 nAChR Antagonist [22]: < 4.2; BRD4 BD2 FRET pIC50 [23]: 4.8; Kd [24]: > 31.6 µM; BRD3 BD1 TR-FRET pIC50 [25]: 7.7; fold selectivity BRD3 BD1 over BD2 ([25]; TR-FRET): 400 fold; BioMAP immune-modulatory biomarker levels ([26]; 10 μM to 160 nM, MCP-1, IL-8, IL-1, IL-10, M-CSF, IL-6): decreases; BioMAP antiproliferative effects ([26]; 10 μM to 160 nM, human primary T cells, coronary artery smooth muscle cells, endothelial cells, fibroblasts): antiproliferative effects; BioMAP cytotoxicity ([26]; 10 μM, […], 630 nM, 160 nM): No cytotoxicity was observed; Kd [27]: > 31.6 µM; pXC50 LCK inhibitor [28]: < 4.5; Kd [29]: > 31.6 µM; pXC50 NK1 antagonist [30]: < 4.6; pXC50 OPRM1 Agonist [31]: < 4.0; pXC50 5-HT2A Agonist [32]: < 4.0
